# In patent US5545648A (Canadian Spinal Research Organization, priority 1992, dated 1996):
# Several values for one entry are separate records, joined by “and”; a condition that tells them apart may be missing. Equal entries are not always repeated. Entries after “also recorded” stand apart in the source; their conditions may differ.
# Columns and labels:
# [1] = system: spinal cord injury patients; settings: cited from earlier work
# [2] = system: synaptic transmission in the spinal cord; settings: relatively high concentrations; cited from earlier work
# [3] = Plasma levels of 4-AP after intravenous infusion (column liquid chromatography); format: in vivo, human
# Method: The drug was obtained in purified powder form from the Regis Chemical Company (Morton Grove, Ill.) and prepared as an injectable solution, using a 0.9% saline vehicle (Uges and Huizinga, 1981), by the pharmacy of St. Joseph's Hospital. The pharmacy was also responsible for testing pyrogenicity, randomizing the order in which drug and vehicle were administered to different patients, and for providing an escalating scale of dosage during the course of the study. The 4-AP for the first two patients was prepared at a concentration of 3 mg/ml, and the concentration was increased to 4 and 5 mg/ml for succeeding subjects (see Table 1). The drug was further diluted by a factor of 50 times in dextrose saline before delivery, and was administered in the form of a continuous intravenous infusion at a rate of 150 ml/hr controlled by a peristaltic infusion pump. Therefore the delivery rate of the drug increased from 9 mg/hr in the first two patients to 15 mg/hr in the last four. Total intended dosage ranged from 18 to 30 mg. The vehicle control was indistinguishable from the drug solution and was delivered in an identical manner.
# (§1) The schedule of each trial was the same. The patient was admitted to the hospital on the preceding day and in the early morning was assessed by neurological examination and electro-diagnostic evaluation. Administration of the drug or placebo, through an in dwelling venous catheter, was then begun and continued for approximately 2 hours, arranged in 20 minute sequences based on delivery of 1 ml aliquots of the 4-AP solution. The patient was monitored electroencephalographically at frequent intervals throughout the procedure. Samples of blood and urine were obtained from an additional intravenous catheter and from the urinary catheter respectively. Blood was obtained at intervals up to 5 hours from the beginning of drug delivery and urine obtained pre-infusion and at 1 and 2 hours after the beginning of infusion. The patients were re-evaluated by complete neurological examination, by the same examiner, at the end of the period of drug delivery. They were then re-examined with the electrodiagnostic tests. A more limited neurological examination was sometimes performed during drug delivery in an attempt to identify any early changes, without producing significant testing fatigue. The electrodiagnostic tests were repeated at 2 hours after the cessation of drug delivery. Patients showing apparent effects of the treatment remained in the hospital overnight and were examined on the following day. Subsequent contact with the patients was by telephone interview or as a result of their correspondence regarding longer term changes associated with their treatment.
# (§2) Two of the patients who reported more prolonged effects of the drug were returned to the hospital after 4 months for a second, unblinded trial, which included neurological examinations daily for 3-4 days. Plasma samples were also obtained daily from these two patients, for measurement of 4-AP.
# Measurement of 4-AP in plasma and urine
# Samples of blood were collected from an in dwelling venous catheter in the arm opposite that into which the drug was delivered. Ten or eleven such samples were obtained at intervals up to 5 hours after the initiation of drug delivery (see FIG. 1). Urine samples were withdrawn from the patients' urinary catheter bags at 1 and 2 hours after the initiation of drug infusion.
# Plasma and urine samples were stored at -80° C. until 4-AP levels were analyzed by means of column liquid chromatography, according to a technique described in detail elsewhere (Kostka et al, 1992). Briefly, both plasma and urine samples were subjected to benzoylation by the Schotten-Baumann reaction to convert 4-AP to N-benzoyl-4-AP (Bz4-AP) prior to liquid-liquid -extraction. Propionyl procainamide (PPA) was chosen as the internal standard. […]
# [4] = system: animals with experimental or naturally occurring spinal cord injuries; settings: intravenous injection; cited from earlier work
# [5] = system: spinal cord injured patients; assay: Deep tendon (segmental) reflex score; format: in vivo, human
# Method: as §1
# Segmental reflexes (biceps, triceps, knee- and ankle-jerk) were evaluated in the conventional manner with a reflex hammer and scored on a 0-4 point scale:
# 0--no detectable response
# 2--brisk response of normal amplitude
# 3--abnormally large amplitude response
# 4--large amplitude response with some clonus.
# The total possible score in a patient with hyperreflexia and clonus in all tested muscles was 32.
# [6] = system: spinal cord injured patients; assay: Effects reported by the subjects and overall clinical benefit (function, chronic pain, spasticity); format: in vivo, human
# Method: The experimental design was a double-blind, placebo-controlled, crossover study in which each patient was administered the drug and a vehicle control on different occasions, separated by two weeks. The order of delivery was randomized.
# as §1, §2
# [7] = system: spinal cord injured patients; assay: Electrodiagnostic testing (nerve conduction, electromyography, somatosensory evoked potentials); format: in vivo, human
# Method: as §1
# Immediately before and after the infusion of 4-AP or placebo, and at approximately 2 hours after the end of the infusion, patients were evaluated with a set of standard electro-diagnostic tests: conduction in peroneal, posterior tibial and sural nerves, electromyography of tibial is anterior and gastroc-nemius muscles during rest and maximal voluntary contraction, and somatosensory evoked potentials. Patients were also monitored with electroencephalography, at intervals during the infusion, to look for evidence of potential for seizure activity.
# [8] = 2 hours after infusion of 4-AP, total of subjects
smiles,measurement,setting,value
"Nc1ccncc1 [4-AP, 4-aminopyridine]",serious side effects,"[1]; human, in vivo",lack of serious side effects
same,therapeutic benefit,[1]; mostly electrophysiological level,modest therapeutic benefit
same,synaptic transmission in the spinal cord,[2],enhance synaptic transmission in the spinal cord
same,plasma level of 4-AP after end of infusion,"[3]; 2-3 hours after the end of infusion, all subjects",significant plasma level
same,plasma level remaining relative to peak level,"[3]; by 2 days after the infusion, from rate of decline in two patients",less than 1%
same,correlation of peak plasma level with dose administered,[3]; dose in mg/kg/hr (FIG. 2),correlated significantly
same,concentration at 48 h,"[3]; human, plasma, iv, 48 hours / 2 days after second, unblinded administration, subjects, read-out: 4-AP plasma concentration (below limit of detection)",< 3 ng/mL
same,time of peak level in the circulation,[3]; i.v. infusion approximately 2 hours,slightly before or after the end of the infusion period
same,peak plasma level achieved for each mg/kg infused,"[3]; i.v. infusion over approximately 2 hours, least squares regression, per mg/kg",approximately 0.27 mg/l
same,plasma level of 4-AP the day after infusion,"[3]; second administration, two subjects",detectable levels of the drug in the plasma the day after infusion
same,correlation of time course of elimination with prolonged neurological effects,"[3]; two subjects, 3-4 days",clearly did not correlate
same,oscillation of measured drug levels,"[3]; up to 5 hours from start of infusion, most subjects",some degree of oscillation of the measured drug levels; also recorded: oscillation in the measured drug levels
same,electrophysiological and behavioral function,[4],"significant improvements in electrophysiological (Blight and Gruner, 1987) and behavioral function"
same,deep tendon reflex scores at 24 and 48 hours,"[5]; 24 and 48 hours, EB, GCh",slight reductions in deep tendon reflex scores at 24 and 48 hours after infusion
same,"change in score for deep tendon reflexes, arms, TOTAL",[5]; [8],+13
same,"change in score for deep tendon reflexes, legs, TOTAL",[5]; [8],+2
same,"change in score for deep tendon reflexes, legs","[5]; 2 hours after infusion of 4-AP, total possible 32, subject one, SC, HT, GCh, AW, GCu",+2 and +1 and -2 and 0 and +3
same,"change in score for deep tendon reflexes, arms","[5]; 2 hours after infusion of 4-AP, total possible 32, subject one, SC, HT, GCh, GCu",+4 and +1 and 0
same,reflex responses at 24 hours,"[5]; 24 hours, AW, LJ",reduced reflex responses
same,deep tendon reflex amplitude immediately after infusion,[5]; predominantly in the arms,marked tendency for increase in amplitude of deep tendon reflexes
same,reproduction of effects at second administration,"[6]; 4 months later, two subjects GCh, EB","effects and side effects similar to those seen in the earlier, blinded administration; also recorded: the effects were reproduced by a second administration of the drug 4 months later in two of the subjects"
same,return to usual state,"[6]; after infusion, subject gamma",≤ 3 days
same,"increase in strength of arms and right leg, reported by subject","[6]; day after infusion, subject beta",about 25%
same,delayed or prolonged effects reported,[6]; five patients with less complete injuries,all reported some delayed or prolonged effects
same,duration of self-sustaining changes in the nervous system,"[6]; human, in vivo",1 to 2 days
same,patients desiring to receive the drug regularly,"[6]; human, in vivo",four of the patients expressed a strong desire to be able to receive the drug on a regular basis
same,reduced usage of analgesic,"[6]; human, in vivo",greatly reduced usage of analgesic in one case
same,reduced usage of antispastic medication,"[6]; human, in vivo",antispastic medication in at least two cases
same,relation between side-effects and apparent benefit,"[6]; human, in vivo",no relation between the appearance of side-effects and apparent benefit
same,motor and/or sensory effects in incomplete injuries,[6]; remaining 5 subjects,showed motor and/or sensory effects
same,duration of markedly reduced spasticity,"[6]; second infusion, subject gamma",more than 24 hours
same,duration of improved function,[6]; some subjects,over 48 hours
same,"reduction of chronic pain and spasticity, motor control and sensory ability (overall)",[6]; spinal cord injured individuals,relief of chronic pain and spasticity; also recorded: can increase motor control and sensory ability and reduce chronic pain and spasticity; also recorded: long lasting reductions in spasticity and in chronic pain and dysesthesias; also recorded: shown to reduce chronic pain and spasticity in certain individuals
same,proportion of patients with incomplete injury showing benefit,[6]; spinal cord injury patients,5 of 6 and 5 of the 6
same,duration of reduction in spasticity,[6]; subject four,three days
same,dysesthesia (persistent itch in one shoulder),[6]; subject four,no change in this condition
same,return to normal requirement for Baclofen,[6]; subject four,only returned to their normal requirement for Baclofen on the fourth day
same,"finger movements back and forth, left hand","[6]; subject four, normally a few flickers",20-30 times
same,duration of absence of pain in the legs,[6]; subject gamma,at least 2 days
same,"sensation, reported by subject",[6]; subject named in the block (LJ; EB; GCh; AW),more sensation below the level of injury; also recorded: remarkable return of sensation below the level of the injury to virtually normal sensation on both sides; also recorded: marked improvement in sensation below the lesion; also recorded: increased sensation; also recorded: more sensation and strength in their legs
same,"chronic pain / paresthesia, reported by subject",[6]; subject named in the block (LJ; GCh; GCu),"The usual burning pain they experienced in their buttocks was absent, though there was still some burning in their lower limbs, which had increased; also recorded: the pain in the legs was absent, though it remained to some extent in their feet; also recorded: reduction of chronic pain; also recorded: significant reduction in the usual tingling paresthesia in their hands"
same,"movement / motor power, reported by subject","[6]; subject named in the block (b79 LJ; b81 EB; b83, b84 GCh; b86 AW; b88 GCu)",slightly greater movement in one thumb and index finger; also recorded: increased motor power in the left arm and leg; also recorded: greater endurance; also recorded: motor endurance below the level of the injury; also recorded: improved strength and sensation in their legs; also recorded: their arms and right leg had been stronger
same,spasticity,"[6]; subject named in the block (b81 EB; b83, b84 GCh)",marked reduction in spasticity; also recorded: decrease in spasticity
same,breathing,[6]; subject two,marked improvement in breathing
same,duration of motor and sensory effects incl. improved breathing,[6]; subject two,about 2 days
same,infused dose at which lower limb strength increased,[6]; subject two,8 mg
same,"relief of chronic, painful dysesthesias below the lesion","[6]; subjects, predominantly proximal in the limb",considerable relief
same,beneficial effects in neurologically complete lesions,[6]; two patients,"Two patients with neurologically ""complete"" spinal cord lesions showed no beneficial effects"
same,electromyographic data,[7]; after 4-AP,consistent with observed changes in strength of muscle contraction
same,peripheral nerve conduction,[7]; after 4-AP,No consistent effects on peripheral nerve conduction
same,"somatosensory evoked potentials (posterior tibial nerve stimulation), no detectable response","[7]; six subjects, before or after injection",no detectable somatosensory evoked potentials
same,form or amplitude of somatosensory evoked potentials,"[7]; subjects, following 4-AP",did not change significantly in form or amplitude
